Measurements reported in US20200405696A1, “INHIBITORS OF INDOLEAMINE 2,3-DIOXYGENASE AND/OR TRYPTOPHAN 2,3-DIOXYGENASE” (IDORSIA PHARMACEUTICALS LTD, priority 2018, published 2020).

Experiments:
[1] = biological target: T1, Recombinant human TDO comprising amino acids 19-407 (Homo sapiens, UniProt P48775); experiment: TDO2 enzymatic assay (NFK quantified by LCMS); assay type: biochemical; details: 15 nM enzyme, 200 μM L-tryptophan, pH7, 30 minutes pre-incubation at RT; mean values when measured multiple times; read-out: hTDO activity (IC50 in nM)
T1 construct: Recombinant human TDO comprising amino acids 19-407 with a N-terminal hexahistidine tag; hexahistidine (His6) (N); made in house; host or cells: E. coli
In short: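 NFK formed over 30 min at RT from 200 μM L-tryptophan was measured by LCMS, normalized to d5-tryptophan, after compound (0.5 nM–10 μM, duplicates, 0.6% DMSO) was preincubated 30 min with 15 nM recombinant His-tagged TDO 19-407 in phosphate buffer pH 7. IC50 from four-parameter logistic fit; repeats averaged.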

[2] = biological target: T2, Recombinant full-length human IDO1 (Homo sapiens, UniProt P14902); experiment: IDO1 enzymatic assay (NFK quantified by LCMS); assay type: biochemical; details: 2 nM enzyme, 5 μM L-tryptophan, pH6.5, 30 minutes pre-incubation at RT; mean values when measured multiple times; read-out: hIDO activity (IC50 in nM)
T2 construct: Recombinant full-length human IDO1 with a N-terminal hexahistidine tag; hexahistidine (His6) (N); made in house; host or cells: E. coli
In short: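 IC50 comes from four-parameter logistic fits of duplicate data, with NFK quantified by LCMS and normalized to L-Trp-(indole-d5). Compound (0.5 nM–10 μM) was preincubated 30 min at RT with 2 nM E. coli-expressed IDO1 before a 30 min reaction with 5 μM tryptophan in pH 6.5 buffer containing ascorbate and methylene blue.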

T2 sequence (P14902 whole entry): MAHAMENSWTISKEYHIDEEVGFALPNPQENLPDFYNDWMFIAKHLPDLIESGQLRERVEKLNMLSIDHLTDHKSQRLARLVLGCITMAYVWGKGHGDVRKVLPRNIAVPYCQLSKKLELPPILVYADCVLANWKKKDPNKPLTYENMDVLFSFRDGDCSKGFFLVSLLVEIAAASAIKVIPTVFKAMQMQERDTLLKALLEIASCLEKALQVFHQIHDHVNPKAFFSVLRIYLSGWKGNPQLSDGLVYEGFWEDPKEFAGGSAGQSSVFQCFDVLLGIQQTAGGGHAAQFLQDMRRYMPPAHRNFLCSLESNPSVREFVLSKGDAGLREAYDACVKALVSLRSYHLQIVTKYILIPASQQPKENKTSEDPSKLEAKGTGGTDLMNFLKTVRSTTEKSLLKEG
T1 sequence (P48775 19-406 limits assumed): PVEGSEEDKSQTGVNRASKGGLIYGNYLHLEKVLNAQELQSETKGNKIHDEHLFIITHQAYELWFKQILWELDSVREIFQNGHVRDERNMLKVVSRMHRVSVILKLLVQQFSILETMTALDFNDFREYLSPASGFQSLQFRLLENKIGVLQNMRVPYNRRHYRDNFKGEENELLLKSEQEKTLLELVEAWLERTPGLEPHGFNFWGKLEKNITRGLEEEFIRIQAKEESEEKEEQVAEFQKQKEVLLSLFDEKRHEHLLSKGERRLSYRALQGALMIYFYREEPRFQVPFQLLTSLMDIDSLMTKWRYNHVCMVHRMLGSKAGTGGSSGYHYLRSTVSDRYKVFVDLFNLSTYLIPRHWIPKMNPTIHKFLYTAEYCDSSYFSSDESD

SMILES | IC50 [1] [nM] | IC50 [2] [nM]
NS(=O)(=O)c1ccc(-n2cc(C(O)c3c(C4CC4)sc4cncn34)nn2)cc1 (racemic) [Example 235, rac-4-{4-[(2-Cyclopropyl-imidazo[5,1-b]thiazol-3-yl)-hydroxy-methyl]-[1,2,3]triazol-1-yl}-benzenesulfonamide] | > 10200 | 24.3
CN(C)S(=O)(=O)c1ccc(-n2cc(C(O)c3c(C4CC4)sc4cncn34)nn2)cc1 (racemic) [Example 236, rac-4-{4-[(2-Cyclopropyl-imidazo[5,1-b]thiazol-3-yl)-hydroxy-methyl]-[1,2,3]triazol-1-yl}-N,N-dimethyl-benzenesulfonamide] | > 10200 | 105
O=S(=O)(c1ccc(-n2cc(C(O)c3c(C4CC4)sc4cncn34)nn2)cc1)N1CCCC1 (racemic) [Example 237, rac-(2-Cyclopropyl-imidazo[5,1-b]thiazol-3-yl)-{1-[4-(pyrrolidine-1-sulfonyl)-phenyl]-1H-[1,2,3]triazol-4-yl}-methanol] | > 10200 | 155
CCN(CC)S(=O)(=O)c1ccc(-n2cc(C(O)c3c(C4CC4)sc4cncn34)nn2)cc1 (racemic) [Example 238, rac-4-{4-[(2-Cyclopropyl-imidazo[5,1-b]thiazol-3-yl)-hydroxy-methyl]-[1,2,3]triazol-1-yl}-N,N-diethyl-benzenesulfonamide] | > 10200 | 137
CCNS(=O)(=O)c1ccc(-n2cc(C(O)c3c(C4CC4)sc4cncn34)nn2)cc1 (racemic) [Example 239, rac-4-{4-[(2-Cyclopropyl-imidazo[5,1-b]thiazol-3-yl)-hydroxy-methyl]-[1,2,3]triazol-1-yl}-N-ethyl-benzenesulfonamide] | > 10200 | 53
CCc1sc2cncn2c1C(O)c1cn(-c2ccc(S(N)(=O)=O)cc2)nn1 (racemic) [Example 240, rac-4-{4-[(2-Ethyl-imidazo[5,1-b]thiazol-3-yl)-hydroxy-methyl]-[1,2,3]triazol-1-yl}-benzenesulfonamide] | 7480 | 28.3
CCc1sc2cncn2c1C(O)c1cn(-c2ccc(S(=O)(=O)N(C)C)cc2)nn1 (racemic) [Example 241, rac-4-{4-[(2-Ethyl-imidazo[5,1-b]thiazol-3-yl)-hydroxy-methyl]-[1,2,3]triazol-1-yl}-N,N-dimethyl-benzenesulfonamide] | > 10200 | 66
CCc1sc2cncn2c1C(O)c1cn(-c2ccc(S(=O)(=O)N3CCCC3)cc2)nn1 (racemic) [Example 242, rac-(2-Ethyl-imidazo[5,1-b]thiazol-3-yl)-{1-[4-(pyrrolidine-1-sulfonyl)-phenyl]-1H-[1,2,3]triazol-4-yl}-methanol] | > 10200 | 139
CCc1sc2cncn2c1C(O)c1cn(-c2ccc(S(=O)(=O)N(CC)CC)cc2)nn1 (racemic) [Example 243, rac-N,N-Diethyl-4-{4-[(2-ethyl-imidazo[5,1-b]thiazol-3-yl)-hydroxy-methyl]-[1,2,3]triazol-1-yl}-benzenesulfonamide] | > 10200 | 101
CCNS(=O)(=O)c1ccc(-n2cc(C(O)c3c(CC)sc4cncn34)nn2)cc1 (racemic) [Example 244, rac-N-Ethyl-4-{4-[(2-ethyl-imidazo[5,1-b]thiazol-3-yl)-hydroxy-methyl]-[1,2,3]triazol-1-yl}-benzenesulfonamide] | > 10200 | 47.2
CCc1sc2cncn2c1C(O)c1cn(-c2ccc(NC(=O)OC(C)(C)C)cc2F)nn1 (racemic) [Example 245, rac-(4-{4-[(2-Ethyl-imidazo[5,1-b]thiazol-3-yl)-hydroxy-methyl]-[1,2,3]triazol-1-yl}-3-fluoro-phenyl)-carbamic Acid Tert-Butyl Ester] | 6810 | 40.8
CC(C)C(=O)Nc1ccc(-n2cc(C(O)c3c(C4CC4)sc4cncn34)cn2)cc1 (racemic) [Example 246, rac-N-(4-{4-[(2-Cyclopropyl-imidazo[5,1-b]thiazol-3-yl)-hydroxy-methyl]-pyrazol-1-yl}-phenyl)-isobutyramide] | 3800 | 29.8
COc1ccc(-n2cc(C(O)c3c(C4CC4)sc4cncn34)cn2)cc1C#N (racemic) [Example 247, rac-5-{4-[(2-Cyclopropyl-imidazo[5,1-b]thiazol-3-yl)-hydroxy-methyl]-pyrazol-1-yl}-2-methoxy-benzonitrile] | 8140 | 31.3
O=[N+]([O-])c1cc(-n2cc(C(O)c3c(C4CC4)sc4cncn34)nn2)ccc1O (racemic) [Example 248, rac-4-{4-[(2-Cyclopropyl-imidazo[5,1-b]thiazol-3-yl)-hydroxy-methyl]-[1,2,3]triazol-1-yl}-2-nitro-phenol] | 4710 | 2.6
COc1ccc(-n2cc(C(O)c3c(-c4ccccc4)sc4cncn34)nn2)cc1 (racemic) [Example 249, rac-[1-(4-Methoxy-phenyl)-1H-[1,2,3]triazol-4-yl]-(2-phenyl-imidazo[5,1-b]thiazol-3-yl)-methanol] | > 10200 | 74.8
O=[N+]([O-])c1cc(-n2cc(C(O)c3c(-c4ccccc4)sc4cncn34)nn2)ccc1O (racemic) [Example 250, rac-4-{4-[Hydroxy-(2-phenyl-imidazo[5,1-b]thiazol-3-yl)-methyl]-[1,2,3]triazol-1-yl}-2-nitro-phenol] | 2300 | 23.8
CC(C)(C)OC(=O)Nc1ccc(-n2cc(C(O)c3c(-c4ccccc4)sc4cncn34)nn2)cc1 (racemic) [Example 251, rac-(4-{4-[Hydroxy-(2-phenyl-imidazo[5,1-b]thiazol-3-yl)-methyl]-[1,2,3]triazol-1-yl}-phenyl)-carbamic acid tert-butyl ester] | > 10200 | 569
COc1ccc(-n2nnc(C(O)c3c(C4CC4)sc4cncn34)c2C)cc1 (racemic) [Example 252, rac-(2-Cyclopropyl-imidazo[5,1-b]thiazol-3-yl)-[1-(4-methoxy-phenyl)-5-methyl-1H-[1,2,3]triazol-4-yl]-methanol] | 7010 | 4.13
OC(c1cn(-c2ccc3[nH]ncc3c2)nn1)c1c(C2CC2)sc2cncn12 (racemic) [Example 253, rac-(2-Cyclopropyl-imidazo[5,1-b]thiazol-3-yl)-[1-(1H-indazol-5-yl)-1H-[1,2,3]triazol-4-yl]-methanol] | > 10200 | 17.2
Cn1ncc2cccc(-n3cc(C(O)c4c(C5CC5)sc5cncn45)nn3)c21 (racemic) [Example 254, rac-(2-Cyclopropyl-imidazo[5,1-b]thiazol-3-yl)-[1-(1-methyl-1H-indazol-7-yl)-1H-[1,2,3]triazol-4-yl]-methanol] | > 10200 | 38.5
COc1ccc(-n2nnc(C(O)c3c(C)sc4cncn34)c2C)cc1 (racemic) [Example 255, rac-[1-(4-Methoxy-phenyl)-5-methyl-1H-[1,2,3]triazol-4-yl]-(2-methyl-imidazo[5,1-b]thiazol-3-yl)-methanol] | 6940 | 14.2
CNS(=O)(=O)Nc1ccc(-n2cc(C(O)c3c(C4CC4)sc4cncn34)nn2)cc1 (racemic) [Example 256, rac-4-{4-[(2-Cyclopropyl-imidazo[5,1-b]thiazol-3-yl)-hydroxy-methyl]-[1,2,3]triazol-1-yl}-((N-methylsulfamoyl)amino)-benzene] | > 10200 | 26.3
